What all share (assay type): biochemical
The target of assay [1] is T1, OXA-1 β-lactamase (Escherichia coli, UniProt P13661).
T1 construct: made in house; host or cells: E. coli BL21(DE3)
Put plainly: β-Lactamase inhibition enzyme assay, OXA-1. The following applies: Nitrocefin 100 μM as substrate, 486 nm; 15 min at 37° C. with enzyme, PBS pH 7.4; read-out: Class D OXA-1 IC50. As for the experimental part: (§1) For SHV-5, Kpc-2, p99AmpC and OXA-1 β-lactamases, E. coli BL21(DE3) bacterial cells carrying expression plasmids (expressed as native untagged proteins) for the individual β-lactamases were grown in 1 L of Superbroth (Teknova Inc. Hollister, Calif.) supplemented with 100 μg/ml kanamycin selection and 1×5052 (0.5% glycerol, 0.05% glucose and 0.2% α-lactose) at 35° C. for 18-20 hours. Cells were harvested by centrifugation (4,000×g, 4° C., 20 min), resuspended in 50 ml of 10 mM HEPES pH 7.5 ( 1/20 of the initial volume). The cells were lysed by sonication (5 pulses of 45 seconds) at 45 W on ice. The lysates were clarified by centrifugation at 10,000×g for 40 minutes at 4° C. Samples were diluted 5-fold in 50 mM sodium acetate pH 5.0, stored overnight at 4° C., after which they were centrifuged at 10,000×g for 30 minutes to clarify, and filtered through 0.45 μm filters. The samples were loaded onto a 5 ml Capto S sepharose cation exchange column (GE Healthcare) pre-equilibrated with 50 mM sodium acetate pH 5.0. The column was washed with 5 column volumes of 50 mM sodium acetate pH 5.0 to wash out unbound protein and a linear gradient of NaCl (0 to 500 mM) was used to elute the protein (over 16 CV) from the column. Fractions were assayed for β-lactamase activity using Centa (Calbiochem, Gibbstown, N.J.) or Nitrocefin (EMD Millipore chemicals, Darmstadt, Germany) as a reporter β-lactamase substrate for activity in the isolated fractions. Active fractions were pooled, concentrated and further purified by gel filtration chromatography on a Superdex 75 prep grade gel filtration column (GE Healthcare, Piscataway, N.J.) pre-equilibrated in 50 mM Hepes pH 7.5, 150 mM NaCl. Active fractions were pooled concentrated, quantitated by BCA protein determination (Thermo Scientific, Rockford, Ill.), dialyzed into PBS and frozen at −80° C. in 20% glycerol until use.
(§2) An equal volume of diluted enzyme stock was added, and the plates were incubated at 37° C. for 15 min. Nitrocefin was used as substrate for p99 AmpC, VIM-2 and OXA-1 and dispensed into each well at a final concentration of 100 μM. Absorbance at 486 nm was immediately monitored for 10 min using a Biotek Powerwave XS2 microplate spectrophotometer using the GEN5 softweare package (Biotek Instruments, Winooski Vt.). In an analogous fashion, imipenem was used as substrate for Kpc-2 and Cefotaxime was used for SHV-5, while changes in absorbance upon hydrolysis of the β-lactam ring were monitored at 300 nm and 260 nm respectively in UV-transparent 96-well microtiter assay plates. Maximum rates of hydrolysis were compared to those in control wells (without inhibitors), and percentages of enzyme inhibition were calculated for each concentration of inhibitor. The concentration of inhibitor needed to reduce the initial rate of hydrolysis of substrate by 50% (IC50) was calculated as the residual activity of β-lactamase at 486 nm using GraFit version 7 kinetics software package (Erithacus Software, Surrey, UK).

Assay [2] deals with T2, KPC-2 β-lactamase (Klebsiella pneumoniae, UniProt Q9F663).
T2 construct: made in house; host or cells: E. coli BL21(DE3)
T2 sequence (Q9F663 25-293, looked up): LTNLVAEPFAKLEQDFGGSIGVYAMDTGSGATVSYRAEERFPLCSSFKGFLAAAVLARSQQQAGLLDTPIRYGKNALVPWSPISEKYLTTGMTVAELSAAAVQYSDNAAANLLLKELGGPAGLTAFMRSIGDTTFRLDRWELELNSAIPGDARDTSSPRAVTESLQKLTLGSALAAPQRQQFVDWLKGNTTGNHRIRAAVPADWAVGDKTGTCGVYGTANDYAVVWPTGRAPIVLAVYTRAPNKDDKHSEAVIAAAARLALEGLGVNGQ
The experiment in a line: β-Lactamase inhibition enzyme assay, KPC-2. The following applies: imipenem as substrate, 300 nm; 15 min at 37° C. with enzyme, PBS pH 7.4; read-out: Class A KPC-2 IC50. As for the experimental part:
as §1, §2

For assay [3], the target named is T3, SHV-5 β-lactamase (Klebsiella pneumoniae, UniProt P0A3M1).
T3 construct: made in house; host or cells: E. coli BL21(DE3)
T3 sequence (P0A3M1 22-286): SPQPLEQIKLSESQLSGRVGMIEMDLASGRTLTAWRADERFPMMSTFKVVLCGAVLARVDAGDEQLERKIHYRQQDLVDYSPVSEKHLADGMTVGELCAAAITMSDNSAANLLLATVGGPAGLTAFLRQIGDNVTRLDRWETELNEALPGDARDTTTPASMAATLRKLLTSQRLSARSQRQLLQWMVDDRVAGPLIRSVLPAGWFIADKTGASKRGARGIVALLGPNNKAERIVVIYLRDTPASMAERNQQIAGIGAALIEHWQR
Put plainly: β-Lactamase inhibition enzyme assay, SHV-5. The method, then: as §1, §2

Assay [4] concerns the target T4, VIM-2 metallo β-lactamase (Pseudomonas aeruginosa, UniProt Q9K2N0).
T4 construct: made in house; host or cells: E. coli BL21(DE3)
Put plainly: β-Lactamase inhibition enzyme assay, VIM-2. The following applies: Nitrocefin 100 μM as substrate, 486 nm; 15 min at 37° C. with enzyme, PBS pH 7.4; read-out: Class B VIM-2 IC50. As for the experimental part: as §1
For Vim-2 metallo β-lactamase, the procedure was identical with the following exceptions, first the protein was not pH adjusted to pH 5 with 50 mM sodium acetate, second, the chromatography step was changed to a 5 ml Q sepharose anion exchange column pre-equilibrated with 50 mM Hepes pH 7.5, and elution of the protein was achieved by a linear gradient of NaCl (0-600 mM). Finally, the VIM-2 purification required a second run (3rd step) on the Q sepharose anion exchange column to achieve acceptable purity (>90%).
as §2

The target in assay [5] is T5, p99 AmpC β-lactamase (Enterobacter cloacae, UniProt P05364).
T5 construct: made in house; host or cells: E. coli BL21(DE3)
T5 sequence (P05364 21-381): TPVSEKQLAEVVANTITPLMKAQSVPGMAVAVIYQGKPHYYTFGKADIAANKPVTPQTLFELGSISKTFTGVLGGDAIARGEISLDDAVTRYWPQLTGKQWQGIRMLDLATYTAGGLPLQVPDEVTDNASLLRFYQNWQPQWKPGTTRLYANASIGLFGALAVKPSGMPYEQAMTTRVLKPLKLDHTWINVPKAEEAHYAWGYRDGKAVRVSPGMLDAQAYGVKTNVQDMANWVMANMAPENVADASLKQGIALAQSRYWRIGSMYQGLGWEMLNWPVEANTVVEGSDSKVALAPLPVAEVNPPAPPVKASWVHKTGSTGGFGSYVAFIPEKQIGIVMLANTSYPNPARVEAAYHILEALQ
Put plainly: β-Lactamase inhibition enzyme assay, p99 AmpC. The method, then: as §1, §2

Our source for the IC50 values is US9376454B2, “Beta-lactamase inhibitors” (priority 2013, dated 2016).

The structures appear in SMILES notation. pIC50: −log10 of the molar value.

T1 sequence (P13661 26-276): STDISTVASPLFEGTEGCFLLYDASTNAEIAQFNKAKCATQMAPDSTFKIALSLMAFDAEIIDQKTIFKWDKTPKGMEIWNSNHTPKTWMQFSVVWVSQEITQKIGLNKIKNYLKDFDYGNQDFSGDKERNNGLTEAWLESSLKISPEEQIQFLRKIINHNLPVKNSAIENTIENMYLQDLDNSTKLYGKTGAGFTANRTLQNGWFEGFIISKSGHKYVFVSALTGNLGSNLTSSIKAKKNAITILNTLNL

As a reminder, the pIC50 is −log10 of the IC50, conventionally taken in molar units. Consider `O=C(N[C@H]1Cc2cccc(C(=O)O)c2OB1O)c1ccc2[nH]ccc2c1` [Example 26, (R)-2-hydroxy-3-(1H-indole-5-carboxamido)-3,4-dihydro-2H-benzo[e][1,2]oxaborinine-8-carboxylic acid], for which the pIC50 in assay [1] was > 7.00; in assay [2], > 7.00; in assay [3], > 7.00; in assay [4], 6.00 to 7.00; in assay [5], > 7.00.

Turning to `O=C(N[C@H]1Cc2cccc(C(=O)O)c2OB1O)c1ccc(-c2ccncc2)cc1` [Example 27, (R)-2-hydroxy-3-(4-(pyridin-4-yl)benzamido)-3,4-dihydro-2H-benzo[e][1,2]oxaborinine-8-carboxylic acid], the pIC50 in assay [1] was > 7.00; in assay [2], > 7.00; in assay [3] it was > 7.00; in assay [4] it was 5.00 to 6.00; in assay [5], > 7.00.

With `O=C(N[C@H]1Cc2cccc(C(=O)O)c2OB1O)c1ccc2ncccc2c1` [Example 28, (R)-2-hydroxy-3-(quinoline-6-carboxamido)-3,4-dihydro-2H-benzo[e][1,2]oxaborinine-8-carboxylic acid], the pIC50 in assay [1] was > 7.00; in assay [2] it was > 7.00; in assay [3] it was > 7.00; in assay [4], 5.00 to 6.00; in assay [5], > 7.00.

For `O=C(N[C@H]1Cc2cccc(C(=O)O)c2OB1O)c1ccc2nccnc2c1` [Example 29, (R)-2-hydroxy-3-(quinoxaline-6-carboxamido)-3,4-dihydro-2H-benzo[e][1,2]oxaborinine-8-carboxylic acid], the pIC50 was > 7.00 in assay [1]; > 7.00 in assay [2]; > 7.00 in assay [3]; 5.00 to 6.00 in assay [4]; > 7.00 in assay [5].

Take `O=C(N[C@H]1Cc2cccc(C(=O)O)c2OB1O)c1ccc2cc[nH]c2c1` [Example 30, (R)-2-hydroxy-3-(1H-indole-6-carboxamido)-3,4-dihydro-2H-benzo[e][1,2]oxaborinine-8-carboxylic acid]: the pIC50 is > 7.00 in assay [1]; > 7.00 in assay [2]; 6.00 to 7.00 in assay [3]; 6.00 to 7.00 in assay [4]; > 7.00 in assay [5].

Consider `O=C(O)c1cccc2c1OB(O)[C@@H](NC(=O)c1cccc3cc[nH]c13)C2` [Example 31, (R)-2-hydroxy-3-(1H-indole-7-carboxamido)-3,4-dihydro-2H-benzo[e][1,2]oxaborinine-8-carboxylic acid], for which the pIC50 is > 7.00 in assay [1]; > 7.00 in assay [2]; 6.00 to 7.00 in assay [3]; 5.00 to 6.00 in assay [4]; > 7.00 in assay [5].

Regarding `O=C(O)c1cccc2c1OB(O)[C@@H](NC(=O)c1cccc3[nH]ccc13)C2` [Example 32, (R)-2-Hydroxy-3-[(1H-indole-4-carbonyl)-amino]-3,4-dihydro-2H-benzo[e][1,2]oxaborinine-8-carboxylic acid], the pIC50 is > 7.00 in assay [1]; > 7.00 in assay [2]; > 7.00 in assay [3]; 6.00 to 7.00 in assay [4]; > 7.00 in assay [5].

For the compound `O=C1Cc2cc(C(=O)N[C@H]3Cc4cccc(C(=O)O)c4OB3O)ccc2N1` [Example 33, (R)-2-Hydroxy-3-[(2-oxo-2,3-dihydro-1H-indole-5-carbonyl)-amino]-3,4-dihydro-2H-benzo[e][1,2]oxaborinine-8-carboxylic acid], the pIC50 in assay [1] is > 7.00; in assay [2] it was > 7.00; in assay [3], > 7.00; in assay [4], 6.00 to 7.00; in assay [5], > 7.00.

For the compound `O=C(N[C@H]1Cc2cccc(C(=O)O)c2OB1O)c1ccc2nc[nH]c2c1` [Example 34, (R)-3-[(3H-Benzoimidazole-5-carbonyl)-amino]-2-hydroxy-3,4-dihydro-2H-benzo[e][1,2]oxaborinine-8-carboxylic acid], the pIC50 in assay [1] is > 7.00; in assay [2], > 7.00; in assay [3] it was > 7.00; in assay [4] it was 6.00 to 7.00; in assay [5], > 7.00.

Take `O=C(N[C@H]1Cc2cccc(C(=O)O)c2OB1O)c1cnc2[nH]ccc2c1` [Example 35, (R)-2-Hydroxy-3-[(1H-pyrrolo[2,3-b]pyridine-5-carbonyl)-amino]-3,4-dihydro-2H-benzo[e][1,2]oxaborinine-8-carboxylic acid]: the negative logarithm of the IC50 (pIC50) in assay [1] was > 7.00; in assay [2] it was > 7.00; in assay [3] it was > 7.00; in assay [4], 6.00 to 7.00; in assay [5] it was > 7.00.

As for `N=C(N)N1Cc2ccc(CC(=O)N[C@H]3Cc4cccc(C(=O)O)c4OB3O)cc2C1` [Example 37, (3R)-3-[[2-(2-carbamimidoylisoindolin-5-yl)acetyl]amino]-2-hydroxy-3,4-dihydro-1,2-benzoxaborinine-8-carboxylic acid], the pIC50 in assay [1] is > 7.00; in assay [2], > 7.00; in assay [3], > 7.00; in assay [4], 6.00 to 7.00; in assay [5], > 7.00.

As to `O=C(Cc1ccc(O)c(O)c1)N[C@H]1Cc2cccc(C(=O)O)c2OB1O` [Example 38, (R)-3-(2-(3,4-dihydroxyphenyl)acetamido)-2-hydroxy-3,4-dihydro-2H-benzo[e][1,2]oxaborinine-8-carboxylic acid], the pIC50 in assay [1] was > 7.00; in assay [2], > 7.00; in assay [3], > 7.00; in assay [4] it was 6.00 to 7.00; in assay [5], > 7.00.

Consider `O=C(N[C@H]1Cc2cccc(C(=O)O)c2OB1O)c1ccc(O)c(O)c1` [Example 39, (R)-3-(3,4-dihydroxybenzamido)-2-hydroxy-3,4-dihydro-2H-benzo[e][1,2]oxaborinine-8-carboxylic acid], for which the pIC50 in assay [1] was > 7.00; in assay [2], > 7.00; in assay [3], 6.00 to 7.00; in assay [4], 6.00 to 7.00; in assay [5] it was > 7.00.

Regarding `NCCOc1ccc(C(=O)N[C@H]2Cc3cccc(C(=O)O)c3OB2O)cc1O` [Example 40, (R)-3-(4-(2-aminoethoxy)-3-hydroxybenzamido)-2-hydroxy-3,4-dihydro-2H-benzo[e][1,2]oxaborinine-8-carboxylic acid], the pIC50 in assay [1] was > 7.00; in assay [2] it was > 7.00; in assay [3] it was 6.00 to 7.00; in assay [4], > 7.00; in assay [5], > 7.00.

Regarding `NCCn1ccc2ccc(C(=O)N[C@H]3Cc4cccc(C(=O)O)c4OB3O)cc21` [Example 41, (R)-3-{[1-(2-Amino-ethyl)-1H-indole-6-carbonyl]-amino}-2-hydroxy-3,4-dihydro-2H-benzo[e][1,2]oxaborinine-8-carboxylic acid], the pIC50 in assay [1], in assay [2], in assay [3], in assay [4] and in assay [5] was > 7.00 in each case.
